Results as given in patent US20080176914A1, “CRYSTAL FORM OF 2-(3-FLUORO-4-HYDROXYPHENYL)-7-VINYL-1,3-BENZOXAZOL-5-OL” (WYETH, priority 2006, published 2008).

Assay: Conversion of the crystal form on suspending and stirring in solvent at room temperature
Type: physicochemical
Description: The anhydrate crystal form (Form B) can be converted to other crystal forms under suitable conditions.

- crystal form obtained after suspending and stirring in water (suspended and stirred in water at room temperature for three days): a hydrate crystal form is obtained
SMILES: C=Cc1cc(O)cc2nc(-c3ccc(O)c(F)c3)oc12 [Form B, 2-(3-fluoro-4-hydroxyphenyl)-7-vinyl-1,3-benzoxazol-5-ol]
- crystal form obtained after suspending and stirring in ethanol (suspended and stirred in ethanol at room temperature for three days): another anhydrate crystal form is obtained
- crystal form obtained after suspending and stirring in methanol (suspended and stirred in methanol at room temperature for one day): another anhydrate crystal form is obtained
